Measurements as given in ChEMBL document CHEMBL2069217, “Self-organizing molecular field analysis of NSAIDs: assessment of pharmacokinetic and physicochemical properties using 3D-QSPkR approach” (Eur J Med Chem, 2012).

Test: Dissociation constant, pKa of the compound
Assay type: physicochemical

Structure (SMILES)	pKa
Cc1cccc(Nc2ccccc2C(=O)O)c1C [MEFENAMIC ACID]	4.2
CCCCC1C(=O)N(c2ccccc2)N(c2ccc(O)cc2)C1=O (stereo not drawn) [OXYPHENBUTAZONE ANHYDROUS]	4.7
O=C(O)CCc1nc(-c2ccccc2)c(-c2ccccc2)o1 [OXAPROZIN]	4.3
Cc1cc(CC(=O)O)n(C)c1C(=O)c1ccc(Cl)cc1 [ZOMEPIRAC]	4.7
CC1=C(CC(=O)O)c2cc(F)ccc2/C1=C\c1ccc([S+](C)[O-])cc1 (stereo not drawn)	4.5
CC(C(=O)O)c1ccc(C(=O)c2cccs2)cc1 (stereo not drawn) [SUPROFEN]	4
CC(C(=O)O)c1ccc2oc(-c3ccc(Cl)cc3)nc2c1 (stereo not drawn) [BENOXAPROFEN]	6.9
CC(C(=O)O)c1ccc2c(c1)[nH]c1ccc(Cl)cc12 (stereo not drawn) [CARPROFEN]	4.7
